From the NIST ThermoML archive (doi:10.1021/je100848r)

Legend:
[1] = xn = mol fraction of the nth substance listed; settings: 101 kPa, Liquid
[2] = 101 kPa, Liquid

CO [methanol] + CCC(=O)[O-].OCC[NH2+]CCO
[1], x2 = 0
Settings	mass density [kg/m3]	viscosity [mPa·s]
293.15 K	791.2	0.6075
303.15 K	781.8	0.5535
313.15 K	772.3	0.501
323.15 K	765.1	0.4601

CCO [ethanol] + CCC(=O)[O-].OCC[NH2+]CCO
[1], x2 = 0
Settings	mass density [kg/m3]	viscosity [mPa·s]
293.15 K	789.3	1.18
303.15 K	780.7	1.019
313.15 K	772.5	0.8424
323.15 K	763.6	0.7081

CCC(=O)[O-].OCC[NH2+]CCO [bis(2-hydroxyethyl)ammonium propanoate] + CCCO
[1]
Settings	mass density, 293.15 K [kg/m3]	mass density, 303.15 K [kg/m3]	mass density, 313.15 K [kg/m3]	mass density, 323.15 K [kg/m3]	viscosity, 293.15 K [mPa·s]	viscosity, 303.15 K [mPa·s]	viscosity, 313.15 K [mPa·s]	viscosity, 323.15 K [mPa·s]
x1 = 0.0585	846.5	839	831.3	823.1	31.6	15.37	6.146	3.897
x1 = 0.1031	875.3	867.9	860.4	852.6	53.29	21.15	9.633	6.039
x1 = 0.2292	942.2	935	927.7	920.9	120.07	47.98	21.6	13.44
x1 = 0.3021	973.6	966.5	959.3	952.9	161.5	66.19	29.62	18.46
x1 = 0.4017	1010.3	1003.3	996.2	990.3	221.9	91.87	41.98	26.24
x1 = 0.5009	1041.2	1034.3	1027.3	1021.9	288.32	119.16	56.4	35.31
x1 = 0.636	1076.2	1069.4	1062.5	1057.6	393.08	163.5	80.35	50.21
x1 = 0.7135	1093.1	1086.4	1079.5	1074.8	461.84	194.52	96.42	60.05
x1 = 0.8018	1110.2	1103.5	1096.5	1092.1	547.5	234.75	116.23	72
x1 = 0.8979	1126.6	1119.9	1113	1108.8	646.69	281.11	138.08	84.93
x1 = 0.9568	1136	1129.3	1122.4	1118.4	701.08	304.98	149.64	92.03
x1 = 1	1142.7	1136.1	1129.2	1125.2	740.28	322.17	157.97	96.54

CCCO [propan-1-ol]
[2]
Settings	mass density [kg/m3]	viscosity [mPa·s]
293.15 K	803.2	2.141
303.15 K	795.5	1.788
313.15 K	787.6	1.391
323.15 K	778.7	1.098

CCCO [propan-1-ol] + CCC(=O)[O-].OCC[NH2+]CCO
[1], x2 = 0
Settings	mass density [kg/m3]	viscosity [mPa·s]
293.15 K	803.2	2.141
303.15 K	795.5	1.788
313.15 K	787.6	1.391
323.15 K	778.7	1.098

CO [methanol]
[2]
Settings	mass density [kg/m3]	viscosity [mPa·s]
293.15 K	791.2	0.6075
303.15 K	781.8	0.5535
313.15 K	772.3	0.501
323.15 K	765.1	0.4601

CCC(=O)[O-].OCC[NH2+]CCO [bis(2-hydroxyethyl)ammonium propanoate] + CO
[1]
Settings	mass density, 293.15 K [kg/m3]	mass density, 303.15 K [kg/m3]	mass density, 313.15 K [kg/m3]	mass density, 323.15 K [kg/m3]	viscosity, 293.15 K [mPa·s]	viscosity, 303.15 K [mPa·s]	viscosity, 313.15 K [mPa·s]	viscosity, 323.15 K [mPa·s]
x1 = 0.0437	851.2	842.3	833.3	826.8	23.19	13.01	4.242	2.639
x1 = 0.1045	913.4	905.2	896.9	891.1	52.44	20.18	8.903	5.509
x1 = 0.2138	987.8	980.3	972.6	967.8	109.39	42.76	19	11.76
x1 = 0.2957	1024.6	1017.4	1010	1005.5	153.61	62.12	27.33	16.99
x1 = 0.4	1058.1	1051.2	1044	1039.7	210.82	86.11	38.58	24.16
x1 = 0.5038	1082.4	1075.6	1068.6	1064.6	269.65	109.07	50.82	32.04
x1 = 0.6125	1101.8	1095.2	1088.3	1084.5	337.06	135.36	65.92	41.76
x1 = 0.6981	1114	1107.6	1100.9	1097.1	399.51	162.04	80.81	51.21
x1 = 0.8026	1126.4	1120	1113.3	1109.7	496.91	208.61	104.49	65.82
x1 = 0.9121	1136.5	1130.1	1123.4	1119.7	636.96	276.64	135.75	84.16
x1 = 0.9587	1140	1133.5	1126.8	1123	692.41	301.08	147.67	91.46
x1 = 1	1142.7	1136.1	1129.2	1125.2	740.28	322.17	157.97	96.54

CCC(=O)[O-].OCC[NH2+]CCO [bis(2-hydroxyethyl)ammonium propanoate] + CCO
[1]
Settings	mass density, 293.15 K [kg/m3]	mass density, 303.15 K [kg/m3]	mass density, 313.15 K [kg/m3]	mass density, 323.15 K [kg/m3]	viscosity, 293.15 K [mPa·s]	viscosity, 303.15 K [mPa·s]	viscosity, 313.15 K [mPa·s]	viscosity, 323.15 K [mPa·s]
x1 = 0.0536	842.7	834.4	826.6	818.5	28.36	14.2	5.271	3.309
x1 = 0.1087	887.2	879.2	871.7	864.2	55.19	21.36	9.602	5.974
x1 = 0.2052	947	939.4	932.2	925.5	105.81	41.43	18.6	11.54
x1 = 0.3168	997.5	990.1	983	977.1	167.85	68.6	30.49	18.98
x1 = 0.4238	1034.5	1027.3	1020.2	1014.8	231.31	95.16	43.46	27.2
x1 = 0.5084	1058.3	1051.2	1044.2	1039.1	284.44	116.45	54.87	34.45
x1 = 0.5946	1078.8	1071.8	1064.9	1060	343.18	140.21	68.08	42.81
x1 = 0.6965	1099.1	1092.3	1085.4	1080.8	428.04	177.51	88.08	55.22
x1 = 0.804	1116.8	1110	1103.1	1098.8	531.61	226.45	112.51	70.07
x1 = 0.8895	1128.8	1122	1115.1	1111	626.32	271.72	133.71	82.61
x1 = 0.9458	1136	1129.3	1122.4	1118.3	686.37	298.35	146.49	90.38
x1 = 1	1142.7	1136.1	1129.2	1125.2	740.28	322.17	157.97	96.54

CCC(=O)[O-].OCC[NH2+]CCO [bis(2-hydroxyethyl)ammonium propanoate]
[2]
Settings	mass density [kg/m3]	viscosity [mPa·s]
293.15 K	1142.7	740.28
303.15 K	1136.1	322.17
313.15 K	1129.2	157.97
323.15 K	1125.2	96.54

CCO [ethanol]
[2]
Settings	mass density [kg/m3]	viscosity [mPa·s]
293.15 K	789.3	1.18
303.15 K	780.7	1.019
313.15 K	772.5	0.8424
323.15 K	763.6	0.7081
